The results in this text go back to ChEMBL document CHEMBL3132784, “Synthesis and biological evaluation of new conformationally restricted S-DABO hybrids as non-nucleoside inhibitors of HIV-1 reverse transcriptase” (Medchemcomm, 2014).

The target in data set [1] is Human immunodeficiency virus type 1 reverse transcriptase (Human immunodeficiency virus 1, UniProt Q72547). Description: Inhibition of HIV-1 wild type recombinant reverse transcriptase p66/p51 assessed as RNA-DNA heteroduplex formation using poly(rA) template/oligo(dT)16 primer incubated prior to enzyme addition by spectrofluorometer analysis.
Data set [2] can be described thus: Selectivity index, ratio of CC50 for human MT4 cells to EC50 for wild-type HIV-1 3B infected in human MT4 cells. The following applies: read-out: Ratio CC50/EC50. The format is toxicity, cell-based.
Data set [3] can be described thus: Cytotoxicity against mock-infected human MT4 cells assessed as decrease in cell viability measured 5 days post-infection by MTT assay. The data set is classed as cell-based.
The subject of data set [4] is Human immunodeficiency virus 2. Nature of the data set: Antiviral activity against HIV-2 ROD infected in human MT4 cells assessed as protection against virus-induced cytopathic effect measured 5 days post-infection by MTT assay. The format is functional, organism-based. The note with it: Human immunodeficiency virus 2, ROD, MT4, 120 h.
Data set [5] concerns Human immunodeficiency virus 1. Description: Antiviral activity against HIV-1 RES056 harboring RT K103N+Y181C double mutant infected in human MT4 cells assessed as protection against virus-induced cytopathic effect measured 5 days post-infection by MTT assay. The note with it: Human immunodeficiency virus 1, RES056, MT4, 120 h. The format is functional, organism-based.
The subject of data set [6] is Human immunodeficiency virus 1. Description: Antiviral activity against wild-type HIV-1 3B infected in human MT4 cells assessed as protection against virus-induced cytopathic effect measured 5 days post-infection by MTT assay. The data set is classed as functional, organism-based. The following applies: Human immunodeficiency virus 1, 3B, MT4, 120 h.

Regarding `COc1ccc(CSc2nc(C(C#N)c3ccccc3Cl)c(C)c(=O)[nH]2)cc1` (stereo not drawn), the IC50 in data set [1] is 0.51 µM. In addition, the selectivity ratio in data set [2] was determined as 239. Further, the CC50 at 120 h in data set [3] came out at 116 µM. The EC50 in data set [4] was over 116 µM; in data set [5], over 116 µM; in data set [6], 0.49 µM.
For `COc1ccc(CSc2nc(C(C#N)c3cccc(F)c3)c(C)c(=O)[nH]2)cc1` (stereo not drawn), the selectivity ratio in data set [2] is 6. Moreover, the CC50 at 120 h in data set [3] came to 173 µM. The EC50 in data set [4] was over 173 µM; in data set [5], over 173 µM; in data set [6] it was 29.1 µM.
For the molecule `Cc1cn([C@H]2C[C@H](N=[N+]=[N-])[C@@H](CO)O2)c(=O)[nH]c1=O` [ZIDOVUDINE], the selectivity ratio in data set [2] is over 14400. In addition, the CC50 at 120 h in data set [3] is over 93.6 µM. Besides, the EC50 came to 0.0063 µM in data set [5] and 0.0064 µM in data set [6].
Consider `COc1ccc(CSc2nc(C(C#N)c3ccc(Cl)cc3)c(C)c(=O)[nH]2)cc1` (stereo not drawn), for which the selectivity ratio in data set [2] was under 1. The CC50 at 120 h in data set [3] was found to be 28.9 µM. Also, the EC50 in data set [4] and in data set [6] was over 28.9 µM throughout.
On to `COc1ccc(CSc2nc(C(C#N)c3ccccc3Br)c(C)c(=O)[nH]2)cc1` (stereo not drawn), for which the IC50 in data set [1] came out at 1.55 µM. Besides, in data set [2], the selectivity ratio amounted to 208. Further, the CC50 at 120 h in data set [3] was 86.7 µM. In addition, the EC50 is over 86.7 µM in data set [4], over 86.7 µM in data set [5] and 0.42 µM in data set [6].
`CCc1c(C(C#N)c2ccccc2Cl)nc(SCc2ccc(OC)cc2)[nH]c1=O` (stereo not drawn): the selectivity ratio in data set [2] amounted to 57. Further, the CC50 at 120 h in data set [3] was found to be 76.9 µM. For the same molecule, the EC50 in data set [4] was over 76.9 µM; in data set [5], over 76.9 µM; in data set [6], 1.34 µM.
For the molecule `COc1ccc(CSc2nc(C(C#N)c3ccccc3Br)c(C(C)C)c(=O)[nH]2)cc1` (stereo not drawn), the selectivity ratio in data set [2] stood at 6. The CC50 at 120 h in data set [3] stood at 26.7 µM. In addition, the EC50 in data set [4] is over 26.7 µM; in data set [5] it was over 26.7 µM; in data set [6], 4.46 µM.
With `COc1ccc(CSc2nc(C(C#N)c3ccc(F)cc3)c(C(C)C)c(=O)[nH]2)cc1` (stereo not drawn), the selectivity ratio in data set [2] turned out to be 7. Besides, the CC50 at 120 h in data set [3] came out at 137 µM. Also, the EC50 in data set [4] is over 137 µM; in data set [5], over 137 µM; in data set [6], 20.4 µM.
As for `CCc1c(C(C#N)c2ccccc2F)nc(SCc2ccc(OC)cc2)[nH]c1=O` (stereo not drawn), the selectivity ratio in data set [2] is 66. Also, in data set [3], the CC50 at 120 h is 109 µM. The EC50 was over 109 µM in data set [4], over 109 µM in data set [5] and 1.66 µM in data set [6].
In the case of `CCc1c(C(C#N)c2cccc(F)c2)nc(SCc2ccc(OC)cc2)[nH]c1=O` (stereo not drawn), the selectivity ratio in data set [2] was determined as 24. The CC50 at 120 h in data set [3] was 173 µM. The results for the EC50 in data set [4], in data set [5] and in data set [6] were over 173 µM, over 173 µM and 7.08 µM, respectively.
Regarding `COc1ccc(CSc2nc(C(C#N)c3cccc(Br)c3)c(C)c(=O)[nH]2)cc1` (stereo not drawn), the selectivity ratio in data set [2] worked out at 10. In addition, the CC50 at 120 h in data set [3] is 156 µM. In addition, the EC50 is over 156 µM in data set [4], over 156 µM in data set [5] and 16.3 µM in data set [6].
Turning to `Cc1ccnc2c1NC(=O)c1cccnc1N2C1CC1` [NEVIRAPINE], in data set [3], the CC50 at 120 h was over 15 µM.
On to `Nc1ccn([C@H]2CC[C@@H](CO)O2)c(=O)n1` [ZALCITABINE], for which the selectivity ratio in data set [2] is over 169. Also, the CC50 at 120 h in data set [3] is over 94.7 µM. Further, the EC50 in data set [4] came out at 1.61 µM; in data set [6], 0.57 µM.
With `COc1ccc(CSc2nc(C(C#N)c3cccc(Br)c3)c(C(C)C)c(=O)[nH]2)cc1` (stereo not drawn), the selectivity ratio in data set [2] is 21. The CC50 at 120 h in data set [3] is 119 µM. Also, the EC50 in data set [4] was over 119 µM; in data set [5], over 119 µM; in data set [6], 5.72 µM.
In the case of `COc1ccc(CSc2nc(C(C#N)c3ccc(F)cc3)c(C)c(=O)[nH]2)cc1` (stereo not drawn), the selectivity ratio in data set [2] is under 1. The CC50 at 120 h in data set [3] amounted to 95.2 µM. The EC50 in data set [4] and in data set [6] was over 95.2 µM throughout.
With `COc1ccc(CSc2nc(C(C#N)c3ccc(Br)cc3F)c(C)c(=O)[nH]2)cc1` (stereo not drawn), the selectivity ratio in data set [2] was under 1. In addition, the CC50 at 120 h in data set [3] turned out to be 22.5 µM. The EC50 in data set [4] and in data set [6] was over 22.5 µM in each case.
On to `CCc1c(C(C#N)c2ccc(Br)cc2)nc(SCc2ccc(OC)cc2)[nH]c1=O` (stereo not drawn), for which the selectivity ratio in data set [2] was under 1. The CC50 at 120 h in data set [3] stood at 23.9 µM. Further, the EC50 in data set [4] and in data set [6] was over 23.9 µM throughout.
Regarding `O=C1Nc2ccc(Cl)cc2[C@@](C#CC2CC2)(C(F)(F)F)O1` [EFAVIRENZ], in data set [3], the CC50 at 120 h was over 6.34 µM.
Take `COc1ccc(CSc2nc(C(C#N)c3c(F)cccc3Cl)c(C)c(=O)[nH]2)cc1` (stereo not drawn): the IC50 in data set [1] came to 0.17 µM. Moreover, the selectivity ratio in data set [2] came out at 548. Also, the CC50 at 120 h in data set [3] was found to be 50.1 µM. Besides, the EC50 is over 50.1 µM in data set [4], over 50.1 µM in data set [5] and 0.091 µM in data set [6].
As for `COc1ccc(CSc2nc(C(C#N)c3ccccc3Cl)c(C(C)C)c(=O)[nH]2)cc1` (stereo not drawn), the selectivity ratio in data set [2] came to 7. The CC50 at 120 h in data set [3] was found to be 27.4 µM. The EC50 in data set [4] is over 27.4 µM; in data set [5] it was over 27.4 µM; in data set [6] it was 3.91 µM.
In the case of `CC(C)Nc1cccnc1N1CCN(C(=O)c2cc3cc(NS(C)(=O)=O)ccc3[nH]2)CC1` [DELAVIRDINE], in data set [2], the selectivity ratio is over 338. In data set [3], the CC50 at 120 h is over 36.2 µM. In addition, the EC50 in data set [5] is over 36.2 µM.
Consider `COc1ccc(CSc2nc(C(C#N)c3ccc(F)cc3F)c(C)c(=O)[nH]2)cc1` (stereo not drawn), for which the selectivity ratio in data set [2] was 8. Also, the CC50 at 120 h in data set [3] amounted to 157 µM. Further, the figures for the EC50 in data set [4], in data set [5] and in data set [6] were over 157 µM, over 157 µM and 20.7 µM, respectively.
`COc1ccc(CSc2nc(C(C#N)c3c(Cl)cccc3Cl)c(C)c(=O)[nH]2)cc1` (stereo not drawn): the IC50 in data set [1] was 0.23 µM. Besides, the selectivity ratio in data set [2] was 252. In data set [3], the CC50 at 120 h came out at 48.8 µM. Also, the EC50 in data set [4] is over 48.8 µM; in data set [5] it was over 48.8 µM; in data set [6], 0.19 µM.
Consider `COc1ccc(CSc2nc(C(C#N)c3ccc(Cl)cc3)c(C(C)C)c(=O)[nH]2)cc1` (stereo not drawn), for which the selectivity ratio in data set [2] was at most 2. In addition, in data set [3], the CC50 at 120 h came out at 85.2 µM. The figures for the EC50 in data set [4], in data set [5] and in data set [6] were over 85.2 µM, over 85.2 µM and over 40.7 µM, respectively.
For the molecule `COc1ccc(CSc2nc(C(C#N)c3cc(F)cc(F)c3)c(C)c(=O)[nH]2)cc1` (stereo not drawn), in data set [2], the selectivity ratio worked out at 7. Besides, the CC50 at 120 h in data set [3] worked out at 154 µM. The figures for the EC50 in data set [4], in data set [5] and in data set [6] were over 154 µM, over 154 µM and 21.3 µM, respectively.
Take `COc1ccc(CSc2nc(C(C#N)c3cccc(Cl)c3)c(C)c(=O)[nH]2)cc1` (stereo not drawn): the selectivity ratio in data set [2] came to 9. Further, the CC50 at 120 h in data set [3] worked out at 161 µM. For the same molecule, the EC50 is over 161 µM in data set [4], over 161 µM in data set [5] and 18 µM in data set [6].
